Source: US20210386705A1, “APPLICATION OF CHIGLITAZAR AND RELATED COMPOUNDS THEREOF” (SHENZHEN CHIPSCREEN BIOSCIENCES CO., LTD., priority 2018, published 2021)
Where “and” joins values, the source holds several entries; their conditions need not be identical. Equal values may be shown once.

Test system: monocytic cell line THP-1
Test: MCP-1-induced chemotaxis of THP-1 cells (Transwell)
Format: cell-based, human
Details: MCP-1 10 ng/mL, compound 3 μmol/L
Excerpt: In an in vitro model, migration of the monocytic cell line THP-1 induced by a certain concentration of chemokines (such as monocyte chemotactic protein 1, MCP-1), and accordingly such in vivo process was mimicked. Transwell technology, according to the manufacturer's instructions from Corning Inc., is considered that Traswell is a kind of a polycarbonate membrane filter as well as a permeable holder. The polycarbonate membrane divides a culture chamber into upper and lower ones, where the components of the culture medium in the lower chamber can affect the growth, differentiation and movement of the cells in upper chamber. Finally, the cell migration ability can be reflected by staining and counting the cells in the lower chamber.
When cultured to the log phase stage, THP-1 cells were resuspended, adjusted the concentration, and seeded in 24-well plates, followed by being pretreated with the culture media containing the compound to be tested (sodium chiglitazar) or the reference compound GFT505, pioglitazone, or PPARγ single agonist rosiglitazone (all purchased from Selleck) for 24 hours. Transwells were used according to the manufacturer's instructions. The culture media containing chemokine MCP-1 were added to the lower chamber (i.e., the bottom of the 24-well plates), and the cell suspension was added to the upper chamber and cultured for 4 hours. Later, the cells cultured on the “ceiling” surface of the polycarbonate membrane were fixed and stained with crystal violet solution (FIG. 6), and then the number of cells in the lower chamber was counted (Table 3).

[1] = 24 hours pretreatment, 4 hours migration

## O=C(c1ccc(F)cc1)c1ccccc1N[C@@H](Cc1ccc(OCCn2c3ccccc3c3ccccc32)cc1)C(=O)[O-].[Na+] [sodium chiglitazar]
[1]
  Cell concentration in lower chamber, Mean value: 10012 cells/ml
  Cell concentration in lower chamber, single replicates: 10630 cells/ml and 9760 cells/ml and 9646 cells/ml
Table 3 and FIG. 6
  Inhibition of migration activity of THP-1 induced by monocyte chemokine (in words): significantly inhibited
Solvent control + MCP-1 = 100
  Migration rate: 33.12%
